According to ChEMBL document CHEMBL3232963, “Discovery of a potent and selective α3β4 nicotinic acetylcholine receptor antagonist from an α-conotoxin synthetic combinatorial library” (J Med Chem, 2014):

Target: Neuronal acetylcholine receptor; alpha3/beta4 (Homo sapiens, UniProt P30926+P32297)
Assay: Inhibition of human alpha3beta4 nAChR expressed in Xenopus laevis oocytes by two-electrode voltage clamp technique
Type: cell-based

Chain of Neuronal acetylcholine receptor; alpha3/beta4 (P30926 whole entry): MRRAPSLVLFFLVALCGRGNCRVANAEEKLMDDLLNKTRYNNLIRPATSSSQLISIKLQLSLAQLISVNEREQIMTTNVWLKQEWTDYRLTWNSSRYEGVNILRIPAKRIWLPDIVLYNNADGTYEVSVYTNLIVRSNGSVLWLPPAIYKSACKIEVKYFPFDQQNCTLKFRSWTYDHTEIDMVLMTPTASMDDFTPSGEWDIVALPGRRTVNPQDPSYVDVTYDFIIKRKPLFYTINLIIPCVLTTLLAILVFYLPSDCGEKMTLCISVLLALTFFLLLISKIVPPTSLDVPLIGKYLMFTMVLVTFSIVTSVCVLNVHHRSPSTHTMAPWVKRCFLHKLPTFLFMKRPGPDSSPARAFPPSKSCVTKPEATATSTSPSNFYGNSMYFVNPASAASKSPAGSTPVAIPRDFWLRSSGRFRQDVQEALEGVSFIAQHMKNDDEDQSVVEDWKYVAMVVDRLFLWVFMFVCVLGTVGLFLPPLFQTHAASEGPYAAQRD
Chain of Neuronal acetylcholine receptor; alpha3/beta4 (P32297 whole entry): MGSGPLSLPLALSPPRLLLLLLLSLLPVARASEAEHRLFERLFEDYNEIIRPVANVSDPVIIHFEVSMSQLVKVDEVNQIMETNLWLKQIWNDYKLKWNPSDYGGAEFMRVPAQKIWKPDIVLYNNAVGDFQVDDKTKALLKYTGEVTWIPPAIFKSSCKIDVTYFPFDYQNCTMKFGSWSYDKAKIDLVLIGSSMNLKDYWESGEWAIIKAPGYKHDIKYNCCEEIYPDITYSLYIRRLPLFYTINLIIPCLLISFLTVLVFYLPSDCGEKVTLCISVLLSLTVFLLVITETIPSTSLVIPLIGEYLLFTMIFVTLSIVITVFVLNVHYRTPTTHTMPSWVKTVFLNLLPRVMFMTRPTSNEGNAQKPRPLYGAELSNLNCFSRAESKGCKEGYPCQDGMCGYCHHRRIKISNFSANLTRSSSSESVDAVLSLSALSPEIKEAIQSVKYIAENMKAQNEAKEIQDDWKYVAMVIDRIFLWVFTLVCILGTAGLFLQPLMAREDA

CC[C@H](C)[C@@H]1NC(=O)[C@H](Cc2cnc[nH]2)NC(=O)[C@H](CCC(N)=O)NC(=O)[C@H](CC(N)=O)NC(=O)[C@H](CC(N)=O)NC(=O)CNC(=O)[C@H](C)NC(=O)[C@@H]2CSSC[C@H](NC(=O)CN)C(=O)N[C@@H](CSSC[C@@H](C(=O)O)NC1=O)C(=O)N[C@@H](CO)C(=O)N[C@@H](Cc1cnc[nH]1)C(=O)N1CCC[C@H]1C(=O)N[C@@H](C)C(=O)N2
IC50: 755 nM
